Experimental data published in the NIST ThermoML archive (doi:10.1016/j.jct.2015.11.023).
Numbers after ± are expanded uncertainties.

Columns and labels:
[1] = wn = mass fraction of the nth substance listed; settings: for surface tension liquid-gas: Maximal bubble pressure; for mass density: 100 kPa, Liquid, Vibrating tube method
[2] = refractive index (Na D-line) (dimensionless); wn = mass fraction of the nth substance listed; settings: 100 kPa, Liquid, Standard Abbe refractometry

`CCC[n+]1ccccc1.N#C[N-]C#N` [1-propylpyridinium dicyanamide] + O gave a surface tension liquid-gas ([1]; 303.15 K, w2 = 0.00205) of 58.1 ± 0.8 mN/m, a surface tension liquid-gas ([1]; 303.15 K, w2 = 0.0035) of 58.4 ± 0.8 mN/m and a surface tension liquid-gas ([1]; 303.15 K, w2 = 0.005) of 58.7 ± 0.8 mN/m. The surface tension liquid-gas ([1]; 303.15 K, w2 = 0.00649) was 59 ± 0.8 mN/m, the surface tension liquid-gas ([1]; 303.15 K, w2 = 0.00802) was 59.3 ± 0.8 mN/m and the mass density ([1]; 303.15 K, w2 = 0.00121) was 1086.72 ± 4.1 kg/m3. The mass density ([1]; 303.15 K, w2 = 0.00271) was 1086.48 ± 4.1 kg/m3, the mass density ([1]; 303.15 K, w2 = 0.00412) was 1086.25 ± 4.1 kg/m3 and the mass density ([1]; 303.15 K, w2 = 0.00573) was 1085.98 ± 4.1 kg/m3. The mass density ([1]; 303.15 K, w2 = 0.00724) was 1085.74 ± 4.1 kg/m3, the surface tension liquid-gas ([1]; 308.15 K, w2 = 0.00205) was 57.8 ± 0.8 mN/m and the surface tension liquid-gas ([1]; 308.15 K, w2 = 0.0035) was 58.1 ± 0.8 mN/m. For the same compound, the surface tension liquid-gas ([1]; 308.15 K, w2 = 0.005) was 58.4 ± 0.8 mN/m, the surface tension liquid-gas ([1]; 308.15 K, w2 = 0.00649) was 58.7 ± 0.8 mN/m and the surface tension liquid-gas ([1]; 308.15 K, w2 = 0.00802) was 59 ± 0.8 mN/m. It also gave a mass density ([1]; 308.15 K, w2 = 0.00121) of 1083.57 ± 4.1 kg/m3, a mass density ([1]; 308.15 K, w2 = 0.00271) of 1083.3 ± 4.1 kg/m3 and a mass density ([1]; 308.15 K, w2 = 0.00412) of 1083.06 ± 4.1 kg/m3. It also gave a mass density ([1]; 308.15 K, w2 = 0.00573) of 1082.77 ± 4.1 kg/m3, a mass density ([1]; 308.15 K, w2 = 0.00724) of 1082.49 ± 4.1 kg/m3 and a surface tension liquid-gas ([1]; 313.15 K, w2 = 0.00205) of 57.4 ± 0.8 mN/m. The surface tension liquid-gas ([1]; 313.15 K, w2 = 0.0035) was 57.8 ± 0.8 mN/m, the surface tension liquid-gas ([1]; 313.15 K, w2 = 0.005) was 58.1 ± 0.8 mN/m and the surface tension liquid-gas ([1]; 313.15 K, w2 = 0.00649) was 58.4 ± 0.8 mN/m. It also gave a surface tension liquid-gas ([1]; 313.15 K, w2 = 0.00802) of 58.7 ± 0.8 mN/m, a mass density ([1]; 313.15 K, w2 = 0.00121) of 1080.46 ± 4.1 kg/m3 and a mass density ([1]; 313.15 K, w2 = 0.00271) of 1080.2 ± 4.1 kg/m3. The mass density ([1]; 313.15 K, w2 = 0.00412) was 1079.95 ± 4.1 kg/m3, the mass density ([1]; 313.15 K, w2 = 0.00573) was 1079.65 ± 4.1 kg/m3 and the mass density ([1]; 313.15 K, w2 = 0.00724) was 1079.36 ± 4.1 kg/m3. It also gave a surface tension liquid-gas ([1]; 318.15 K, w2 = 0.00205) of 57.1 ± 0.8 mN/m, a surface tension liquid-gas ([1]; 318.15 K, w2 = 0.0035) of 57.5 ± 0.8 mN/m and a surface tension liquid-gas ([1]; 318.15 K, w2 = 0.005) of 57.8 ± 0.8 mN/m. It also gave a surface tension liquid-gas ([1]; 318.15 K, w2 = 0.00649) of 58.1 ± 0.8 mN/m, a surface tension liquid-gas ([1]; 318.15 K, w2 = 0.00802) of 58.4 ± 0.8 mN/m and a mass density ([1]; 318.15 K, w2 = 0.00121) of 1077.36 ± 4.1 kg/m3. The mass density ([1]; 318.15 K, w2 = 0.00271) was 1077.12 ± 4.1 kg/m3, the mass density ([1]; 318.15 K, w2 = 0.00412) was 1076.87 ± 4.1 kg/m3 and the mass density ([1]; 318.15 K, w2 = 0.00573) was 1076.55 ± 4.1 kg/m3. It also gave a mass density ([1]; 318.15 K, w2 = 0.00724) of 1076.27 ± 4.1 kg/m3, a surface tension liquid-gas ([1]; 323.15 K, w2 = 0.00205) of 56.9 ± 0.8 mN/m and a surface tension liquid-gas ([1]; 323.15 K, w2 = 0.0035) of 57.2 ± 0.8 mN/m. For the same compound, the surface tension liquid-gas ([1]; 323.15 K, w2 = 0.005) was 57.5 ± 0.8 mN/m, the surface tension liquid-gas ([1]; 323.15 K, w2 = 0.00649) was 57.8 ± 0.8 mN/m and the surface tension liquid-gas ([1]; 323.15 K, w2 = 0.00802) was 58.2 ± 0.8 mN/m. The mass density ([1]; 323.15 K, w2 = 0.00121) was 1074.29 ± 4.1 kg/m3, the mass density ([1]; 323.15 K, w2 = 0.00271) was 1074.02 ± 4.1 kg/m3 and the mass density ([1]; 323.15 K, w2 = 0.00412) was 1073.79 ± 4.1 kg/m3. It also gave a mass density ([1]; 323.15 K, w2 = 0.00573) of 1073.46 ± 4.1 kg/m3, a mass density ([1]; 323.15 K, w2 = 0.00724) of 1073.19 ± 4.1 kg/m3 and a surface tension liquid-gas ([1]; 328.15 K, w2 = 0.00205) of 56.5 ± 0.8 mN/m. For the same compound, the surface tension liquid-gas ([1]; 328.15 K, w2 = 0.0035) was 56.8 ± 0.8 mN/m, the surface tension liquid-gas ([1]; 328.15 K, w2 = 0.005) was 57.2 ± 0.8 mN/m and the surface tension liquid-gas ([1]; 328.15 K, w2 = 0.00649) was 57.5 ± 0.8 mN/m. The surface tension liquid-gas ([1]; 328.15 K, w2 = 0.00802) was 57.8 ± 0.8 mN/m, the mass density ([1]; 328.15 K, w2 = 0.00121) was 1071.24 ± 4.1 kg/m3 and the mass density ([1]; 328.15 K, w2 = 0.00271) was 1070.97 ± 4.1 kg/m3. For the same compound, the mass density ([1]; 328.15 K, w2 = 0.00412) was 1070.72 ± 4.1 kg/m3, the mass density ([1]; 328.15 K, w2 = 0.00573) was 1070.41 ± 4.1 kg/m3 and the mass density ([1]; 328.15 K, w2 = 0.00724) was 1070.15 ± 4.1 kg/m3. For the same compound, the surface tension liquid-gas ([1]; 333.15 K, w2 = 0.00205) was 56.2 ± 0.8 mN/m, the surface tension liquid-gas ([1]; 333.15 K, w2 = 0.0035) was 56.5 ± 0.8 mN/m and the surface tension liquid-gas ([1]; 333.15 K, w2 = 0.005) was 56.9 ± 0.8 mN/m. The surface tension liquid-gas ([1]; 333.15 K, w2 = 0.00649) was 57.2 ± 0.8 mN/m, the surface tension liquid-gas ([1]; 333.15 K, w2 = 0.00802) was 57.6 ± 0.8 mN/m and the mass density ([1]; 333.15 K, w2 = 0.00121) was 1068.17 ± 4.1 kg/m3. The mass density ([1]; 333.15 K, w2 = 0.00271) was 1067.92 ± 4.1 kg/m3, the mass density ([1]; 333.15 K, w2 = 0.00412) was 1067.67 ± 4.1 kg/m3 and the mass density ([1]; 333.15 K, w2 = 0.00573) was 1067.34 ± 4.1 kg/m3. The mass density ([1]; 333.15 K, w2 = 0.00724) was 1067.04 ± 4.1 kg/m3, the surface tension liquid-gas ([1]; 338.15 K, w2 = 0.00205) was 55.8 ± 0.8 mN/m and the surface tension liquid-gas ([1]; 338.15 K, w2 = 0.0035) was 56.1 ± 0.8 mN/m. For the same compound, the surface tension liquid-gas ([1]; 338.15 K, w2 = 0.005) was 56.5 ± 0.8 mN/m, the surface tension liquid-gas ([1]; 338.15 K, w2 = 0.00649) was 56.8 ± 0.8 mN/m and the surface tension liquid-gas ([1]; 338.15 K, w2 = 0.00802) was 57.1 ± 0.8 mN/m. The mass density ([1]; 338.15 K, w2 = 0.00121) was 1065.15 ± 4.1 kg/m3, the mass density ([1]; 338.15 K, w2 = 0.00271) was 1064.88 ± 4.1 kg/m3 and the mass density ([1]; 338.15 K, w2 = 0.00412) was 1064.64 ± 4.1 kg/m3. The mass density ([1]; 338.15 K, w2 = 0.00573) was 1064.3 ± 4.1 kg/m3, the mass density ([1]; 338.15 K, w2 = 0.00724) was 1063.99 ± 4.1 kg/m3 and the refractive index ([2]; 303.15 K, w2 = 0.00205) was 1.5386 ± 0.006. The refractive index ([2]; 303.15 K, w2 = 0.00353) was 1.5384 ± 0.006, the refractive index ([2]; 303.15 K, w2 = 0.00496) was 1.5381 ± 0.006 and the refractive index ([2]; 303.15 K, w2 = 0.00639) was 1.5378 ± 0.006. It also gave a refractive index ([2]; 303.15 K, w2 = 0.0079) of 1.5375 ± 0.006, a refractive index ([2]; 308.15 K, w2 = 0.00205) of 1.537 ± 0.006 and a refractive index ([2]; 308.15 K, w2 = 0.00353) of 1.5368 ± 0.006. For the same compound, the refractive index ([2]; 308.15 K, w2 = 0.00496) was 1.5365 ± 0.006, the refractive index ([2]; 308.15 K, w2 = 0.00639) was 1.5362 ± 0.006 and the refractive index ([2]; 308.15 K, w2 = 0.0079) was 1.5359 ± 0.006. It also gave a refractive index ([2]; 313.15 K, w2 = 0.00205) of 1.5352 ± 0.006, a refractive index ([2]; 313.15 K, w2 = 0.00353) of 1.5349 ± 0.006 and a refractive index ([2]; 313.15 K, w2 = 0.00496) of 1.5347 ± 0.006. It also gave a refractive index ([2]; 313.15 K, w2 = 0.00639) of 1.5344 ± 0.006, a refractive index ([2]; 313.15 K, w2 = 0.0079) of 1.5341 ± 0.006 and a refractive index ([2]; 318.15 K, w2 = 0.00205) of 1.5338 ± 0.006. For the same compound, the refractive index ([2]; 318.15 K, w2 = 0.00353) was 1.5335 ± 0.006, the refractive index ([2]; 318.15 K, w2 = 0.00496) was 1.5332 ± 0.006 and the refractive index ([2]; 318.15 K, w2 = 0.00639) was 1.5329 ± 0.006. For the same compound, the refractive index ([2]; 318.15 K, w2 = 0.0079) was 1.5327 ± 0.006, the refractive index ([2]; 323.15 K, w2 = 0.00205) was 1.5325 ± 0.006 and the refractive index ([2]; 323.15 K, w2 = 0.00353) was 1.5322 ± 0.006. For the same compound, the refractive index ([2]; 323.15 K, w2 = 0.00496) was 1.5319 ± 0.006, the refractive index ([2]; 323.15 K, w2 = 0.00639) was 1.5316 ± 0.006 and the refractive index ([2]; 323.15 K, w2 = 0.0079) was 1.5313 ± 0.006. For the same compound, the refractive index ([2]; 328.15 K, w2 = 0.00205) was 1.5308 ± 0.006, the refractive index ([2]; 328.15 K, w2 = 0.00353) was 1.5306 ± 0.006 and the refractive index ([2]; 328.15 K, w2 = 0.00496) was 1.5303 ± 0.006. The refractive index ([2]; 328.15 K, w2 = 0.00639) was 1.5301 ± 0.006, the refractive index ([2]; 328.15 K, w2 = 0.0079) was 1.5298 ± 0.006 and the refractive index ([2]; 333.15 K, w2 = 0.00205) was 1.529 ± 0.006. For the same compound, the refractive index ([2]; 333.15 K, w2 = 0.00353) was 1.5288 ± 0.006, the refractive index ([2]; 333.15 K, w2 = 0.00496) was 1.5286 ± 0.006 and the refractive index ([2]; 333.15 K, w2 = 0.00639) was 1.5283 ± 0.006. For the same compound, the refractive index ([2]; 333.15 K, w2 = 0.0079) was 1.5281 ± 0.006, the refractive index ([2]; 338.15 K, w2 = 0.00205) was 1.5273 ± 0.006 and the refractive index ([2]; 338.15 K, w2 = 0.00353) was 1.527 ± 0.006. For the same compound, the refractive index ([2]; 338.15 K, w2 = 0.00496) was 1.5268 ± 0.006, the refractive index ([2]; 338.15 K, w2 = 0.00639) was 1.5265 ± 0.006 and the refractive index ([2]; 338.15 K, w2 = 0.0079) was 1.5263 ± 0.006.
